Reference: patent EP2699223B1, “NEW COSMETIC USES OF GHK TRIPEPTIDE” (Sederma, priority 2011, dated 2012)
Peptide text beside a SMILES is read from it. * marks the point of attachment. Biotin = O=C1N[C@H]2[C@H](CS[C@H]2CCCCC(=O)*)N1

How the values were obtained:
Format in all cases: in vivo, female volunteers
lashes [1] = test: Lash diameter by photo measurement and image analysis, same double-blind clinical study; settings: after 30 days of daily use; 2% in a basic mascara formula
Procedure: (§1) Lashes were photographed in a precise manner that could be reproduced and at a special angle so that lashes could be viewed perfectly. An image analysis was then performed on these photographs to quantify lash length and diameter in the central segment of the lids of female volunteers.
(§2) This was a double-blind study that employed non-invasive methods. 30 female volunteers used two mascaras: 1) VOLUMISING BLACK MASCARA (according to Example 1) containing 0.00066% of Biot-GHK and 0.01% of panthenol on one eye and 2) its placebo on the other eye (same formula without the active ingredients of the invention).
The measurements were performed before application (TO) then after 15 and 30 days of daily application. Application during the eight hours preceding a measurement day was not allowed.
The volunteers had to apply each mascara as follows: 3 brush strokes to the outside lashes, 4 brush strokes to the central lashes and 3 brush strokes to the interior lashes. […]
Once the head was correctly positioned on an appropriate mechanism, the lashes were frontally photographed using a Reflex Nikon D300 (12.3 megapixel) digital camera with a "macro" (60 mm F/2.8 GED) lens and a flash. The images were analysed with special software. […] The lengths and diameters were measured on the lashes of segments S2, S3 and S4 (5 lashes per segment) on each side. […]

lashes [2] = test: Lash length by photo measurement and image analysis, double-blind clinical study, mascara on one eye versus placebo on the other; settings: length and diameter, 15 and 30 days
Procedure: The purpose of the clinical study was to evaluate the following among volunteers: • lash lengthening, • lash thickening, • reinforcement of lash anchorage (decrease in lash loss during mascara removal).
as §1, §2
The measurements were performed before application (TO) then after 15 and 30 days of daily application. Application during the eight hours preceding a measurement day was not allowed. […]
Once the head was correctly positioned on an appropriate mechanism, the lashes were frontally photographed using a Reflex Nikon D300 (12.3 megapixel) digital camera with a "macro" (60 mm F/2.8 GED) lens and a flash. The images were analysed with special software. […] The lengths and diameters were measured on the lashes of segments S2, S3 and S4 (5 lashes per segment) on each side.

lashes [3] = test: Blind clinical evaluation of lash photos by 3 trained experts (lengthening, thickening); settings: summary statement
Procedure: Concurrent to this quantitative metrological study, two other evaluations were performed: one clinical evaluation in which trained experts scored photos and another evaluation in which the volunteers themselves evaluated the perceived effects using a multi-item questionnaire.
as §2
Table 3: Blind evaluation performed by 3 trained experts on lash lengthening in photos of 30 volunteers.
Table 4: Blind evaluation performed by 3 trained experts on increased lash diameter in photos of 30 volunteers

NCCCC[C@H](NC(=O)[C@H](Cc1c[nH]cn1)NC(=O)CNC(=O)CCCC[C@@H]1SC[C@@H]2NC(=O)N[C@@H]21)C(=O)O [Biot-GHK peptide, Biotinoyl tripeptide-1] (Biotin-Gly-His-Lys-OH)
Increase printed as "volume" (lashes [1]): +14.2 mm^3
Result higher than the increase of parameters with the placebo (lashes [2]): about 60%
Subjects in whom the variation was observed (first of "respectively": length) (lashes [3]): 87%
Subjects in whom the variation was observed (second of "respectively": diameter, printed volume) (lashes [3]): 73%
